According to patent publication US20220073496A1, “NOVEL QUINOLINE DERIVATIVE INHIBITOR” (Nanjing Transthera Biosciences Co., Ltd., priority 2018, published 2022):
pIC50: −log10 of the molar value.

Assays:
Mer (h) = target: T1, Mer (h) (Homo sapiens, UniProt Q12866); assay: Enzymatic activity test, Mer (h); assay type: biochemical; conditions: 10 μM [γ-33P]-ATP, 40 minutes, room temperature
T1 construct: purchased
T1 sequence (Q12866 21-999): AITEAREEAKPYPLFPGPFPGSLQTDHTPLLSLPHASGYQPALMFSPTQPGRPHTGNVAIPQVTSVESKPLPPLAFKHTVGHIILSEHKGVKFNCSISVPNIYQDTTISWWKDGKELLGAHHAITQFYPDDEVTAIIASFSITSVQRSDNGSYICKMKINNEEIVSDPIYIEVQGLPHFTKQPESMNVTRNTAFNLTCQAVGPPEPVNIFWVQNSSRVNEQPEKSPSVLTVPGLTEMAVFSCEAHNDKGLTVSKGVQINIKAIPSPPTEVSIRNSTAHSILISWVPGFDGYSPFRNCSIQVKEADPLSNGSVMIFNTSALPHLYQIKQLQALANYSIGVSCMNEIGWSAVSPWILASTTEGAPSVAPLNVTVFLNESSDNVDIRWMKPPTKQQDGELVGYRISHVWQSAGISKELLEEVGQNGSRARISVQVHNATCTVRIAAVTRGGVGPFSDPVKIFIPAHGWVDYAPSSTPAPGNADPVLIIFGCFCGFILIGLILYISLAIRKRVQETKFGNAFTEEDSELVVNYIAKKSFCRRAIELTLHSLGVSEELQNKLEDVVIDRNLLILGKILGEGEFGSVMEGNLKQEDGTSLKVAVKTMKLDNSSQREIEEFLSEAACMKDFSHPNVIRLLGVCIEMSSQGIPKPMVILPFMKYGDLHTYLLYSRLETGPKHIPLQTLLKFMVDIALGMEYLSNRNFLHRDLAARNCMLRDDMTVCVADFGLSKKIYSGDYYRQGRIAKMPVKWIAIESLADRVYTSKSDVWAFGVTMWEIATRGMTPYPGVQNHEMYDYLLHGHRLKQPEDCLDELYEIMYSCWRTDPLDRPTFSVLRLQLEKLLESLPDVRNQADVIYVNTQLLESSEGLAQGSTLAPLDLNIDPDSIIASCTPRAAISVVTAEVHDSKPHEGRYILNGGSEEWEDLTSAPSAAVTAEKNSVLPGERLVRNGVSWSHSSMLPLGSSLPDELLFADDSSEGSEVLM
Method: (§1) Assay 3: Enzymatic Activity Test of the Compounds of the Present Invention
(§2) Test substances: the compounds of the present invention, wherein the structures and preparations thereof were as described above.
(§3) (1) Preparation of the Compound Stock Solution
(§4) The compound was dissolved in 100% DMSO to prepare a stock solution with a maximum concentration of 500 μM.
(§5) (2) Preparation of the Compound Working Solution
(§6) The compound stock solution was diluted to final concentrations of 500, 150, 50, 15, 5, 1.5, 0.5, 0.15 and 0.05 μM to become the compound working solutions (50×).
(§7) (3) Preparation of Different Enzyme Reaction Solutions
The Mer (h) enzyme was dissolved in 8 mM MOPS (pH 7.0), 0.2 mM EDTA, 30 mM NaCl, and 250 μM GGMEDIYFEFIVIGGKKK to prepare an enzyme solution having a final concentration of 3.1 nM. The enzymatic reaction was activated by using 10 mM magnesium acetate and 10 μM [γ-^33P]-ATP to form an Mg/ATP mixed solution.
(§8) In a 384-well plate, the compound working solution was added to final concentrations of 10000, 3000, 1000, 300, 100, 30, 10, 3, and 1 nM. Then different enzyme reaction solutions prepared according to the above conditions were added. The incubation was carried out for 40 minutes at room temperature. The test was terminated by the addition of a 0.5% phosphoric acid solution. 10 μL of the reaction solution was taken and dropped to the P30 filter paper. The filter paper was washed 4 times with 0.425% phosphoric acid solution and once with methanol, and then placed on a scintillation counter. The […] IC50 values were calculated using GraphPad 5.0 software.

Axl (h) = target: T2, Axl (h) (Homo sapiens, UniProt P30530); assay: Enzymatic activity test, Axl (h); assay type: biochemical; conditions: 10 μM [γ-33P]-ATP, 40 minutes, room temperature
T2 construct: purchased
T2 sequence (P30530 26-894): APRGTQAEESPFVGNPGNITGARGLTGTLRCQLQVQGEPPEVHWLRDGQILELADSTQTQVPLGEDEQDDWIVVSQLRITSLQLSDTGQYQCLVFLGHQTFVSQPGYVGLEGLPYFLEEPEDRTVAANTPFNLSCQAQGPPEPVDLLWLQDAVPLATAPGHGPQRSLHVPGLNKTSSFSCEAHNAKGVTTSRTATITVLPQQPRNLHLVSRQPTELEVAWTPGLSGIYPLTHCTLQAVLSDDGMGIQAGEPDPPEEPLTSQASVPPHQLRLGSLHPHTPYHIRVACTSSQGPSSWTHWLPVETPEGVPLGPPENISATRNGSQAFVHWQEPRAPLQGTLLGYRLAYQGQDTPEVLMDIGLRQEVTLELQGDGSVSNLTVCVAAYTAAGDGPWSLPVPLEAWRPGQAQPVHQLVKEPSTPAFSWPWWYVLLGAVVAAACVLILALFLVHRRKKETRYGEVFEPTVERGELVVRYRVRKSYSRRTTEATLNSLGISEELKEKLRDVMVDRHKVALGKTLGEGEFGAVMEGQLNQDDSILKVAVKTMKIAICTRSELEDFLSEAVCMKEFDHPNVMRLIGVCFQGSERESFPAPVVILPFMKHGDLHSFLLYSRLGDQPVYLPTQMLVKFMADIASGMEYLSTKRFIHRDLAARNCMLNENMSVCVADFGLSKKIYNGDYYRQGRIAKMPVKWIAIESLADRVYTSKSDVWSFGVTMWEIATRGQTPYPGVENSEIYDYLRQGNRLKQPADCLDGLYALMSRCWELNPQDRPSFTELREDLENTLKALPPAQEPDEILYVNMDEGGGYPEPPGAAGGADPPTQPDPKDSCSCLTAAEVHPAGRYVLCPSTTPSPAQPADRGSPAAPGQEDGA
Method: as §1, §2, §3, §4, §5, §6, §7
The Axl (h) enzyme was dissolved in 8 mM MOPS (pH 7.0), 0.2 mM EDTA, and 250 μM KKSRGDYMTMQIG to prepare an enzyme solution having a final concentration of 1.7 nM. The enzymatic reaction was activated by using 10 mM magnesium acetate and 10 μM [γ-^33P]-ATP to form an Mg/ATP mixed solution.
as §8

`COc1cc2nccc(Oc3ccc(NC(=O)c4nn(C(C)C)cc(-c5ccc(F)cc5)c4=O)nc3)c2cc1OC` [Compound 15, N-(5-((6,7-dimethoxyquinolin-4-yl)oxy)pyridin-2-yl)-5-(4-fluorophenyl)-1-isopropyl-4-oxo-1,4-dihydropyridazine-3-carboxamide] was tested, and the pIC50 (Mer (h)) was over 9.00 and the pIC50 (Axl (h)) was 7.96.

With `COc1cc2nccc(Oc3ncc(NC(=O)c4nn(C5CC5)cc(-c5ccc(F)cc5)c4=O)cn3)c2cc1OC` [Compound 37, 1-cyclopropyl-N-(2-((6,7-dimethoxyquinolin-4-yl)oxy)pyrimidine-5-yl)-5-para-fluorophenyl-4-oxo-1,4-dihydropyridazine-3-carboxamide] the pIC50 (Mer (h)) was over 9.00 and the pIC50 (Axl (h)) was 8.70.

For `COc1cc2nccc(Oc3cnc(NC(=O)c4nn(C(C)C)cc(-c5ccc(F)cc5)c4=O)nc3)c2cc1OC` [Compound 16, N-(5-((6,7-dimethoxyquinolin-4-yl)oxy)pyrimidine-2-yl)-5-(4-fluorophenyl)-1-isopropyl-4-oxo-1,4-dihydropyridazine-3-carboxamide], the pIC50 (Mer (h)) was 8.70 and the pIC50 (Axl (h)) was 7.89.

Work on `COc1cc2nccc(Oc3ccc(NC(=O)c4nn(C5CC5)cc(-c5ccc(F)cc5)c4=O)nc3)c2cc1OC` [Compound 31] yielded a pIC50 (Mer (h)) of over 9.00 and a pIC50 (Axl (h)) of 8.40.

`COc1cc2nccc(Oc3cnc(NC(=O)c4cn(C5CC5)cc(-c5ccc(F)cc5)c4=O)nc3)c2cc1OC` [Compound 32, 1-cyclopropyl-N-(5-((6,7-dimethoxyquinolin-4-yl)oxy)pyrimidine-2-yl)-5-(4-fluorophenyl)-4-oxo-1,4-dihydropyridin-3-carboxamide] gave a pIC50 (Mer (h)) of 8.70 and a pIC50 (Axl (h)) of 8.30.

`COc1cc2nccc(Oc3cnc(NC(=O)c4cn(C(C)C)nc(-c5ccc(F)cc5)c4=O)nc3)c2cc1OC` [Compound 39, N-(5-((6,7-dimethoxyquinolin-4-yl)oxy)pyrimidine-2-yl)-6-(4-fluorophenyl)-2-isopropyl-5-oxo-2,5-dihydropyridazine-4-carboxamide] was tested, and the pIC50 (Mer (h)) was 8.52 and the pIC50 (Axl (h)) was 8.40.

`COc1cc2nccc(Oc3ccc(NC(=O)c4cn(C(C)C)cc(-c5ccc(F)cc5)c4=O)nc3)c2cc1OC` [Compound 14, N-(5-((6,7-dimethoxyquinolin-4-yl)oxy)pyridin-2-yl)-5-(4-fluorophenyl)-1-isopropyl-4-oxo-1,4-dihydropyridin-3-carboxamide] showed a pIC50 (Mer (h)) of 8.70 and a pIC50 (Axl (h)) of 8.10.

`COc1cc2nccc(Oc3ccc(NC(=O)c4nn(C(C)C)cc(-c5ccc(F)cc5)c4=O)cn3)c2cc1OC` [Compound 29, N-(6-((6,7-dimethoxyquinolin-4-yl)oxy)pyridin-3-yl)-1-isopropyl-4-oxo-5-para-fluorophenyl-1,4-dihydropyridazine-3-carboxamide] showed a pIC50 (Mer (h)) of 9.00 and a pIC50 (Axl (h)) of 8.30.

For `COc1cc2nccc(Oc3cnc(NC(=O)c4nn(C5CC5)cc(-c5ccc(F)cc5)c4=O)nc3)c2cc1OC` [Compound 33], the pIC50 (Mer (h)) was over 9.00 and the pIC50 (Axl (h)) was 8.70.

In the case of `COc1cc2nccc(Oc3ccc(NC(=O)c4cn(C(C)C)nc(-c5ccc(F)cc5)c4=O)nc3)c2cc1OC` [Compound 41, N-(5-((6,7-dimethoxyquinolin-4-yl)oxy)pyridin-2-yl)-6-(4-fluorophenyl)-2-isopropyl-5-oxo-2,5-dihydropyridazine-4-carboxamide], the pIC50 (Mer (h)) was 8.70 and the pIC50 (Axl (h)) was 7.92.

`COc1cc2nccc(Oc3ccc(NC(=O)c4cn(C(C)C)nc(-c5ccc(F)cc5)c4=O)cn3)c2cc1OC` [Compound 38, N-(6-((6,7-dimethoxyquinolin-4-yl)oxy)pyridin-3-yl)-6-para-fluorophenyl-2-isopropyl-5-oxo-2,5-dihydropyridazine-4-carboxamide] showed a pIC50 (Mer (h)) of 8.52 and a pIC50 (Axl (h)) of 8.52.

Compound `COc1cc2nccc(Oc3ccc(NC(=O)c4cn(C5CC5)cc(-c5ccc(F)cc5)c4=O)nc3)c2cc1OC` [Compound 30, N-(5-((6,7-dimethoxyquinolin-4-yl)oxy)pyridin-2-yl)-1-cyclopropyl-4-oxo-5-para-fluorophenyl-1,4-hydropyridin-3-carboxamide] has a pIC50 (Mer (h)) of over 9.00 and a pIC50 (Axl (h)) of 8.15.

`COc1cc2nccc(Oc3ccc(NC(=O)c4cn(C(C)C)cc(-c5ccc(C)cc5)c4=O)nc3)c2cc1OC` [Compound 1, N-(5-((6,7-dimethoxyquinolin-4-yl)oxy)pyridin-2-yl)-1-isopropyl-4-oxo-5-p-tolyl-1,4-dihydropyridin-3-carboxamide] showed a pIC50 (Mer (h)) of 8.70 and a pIC50 (Axl (h)) of 7.77.

`COc1cc2nccc(Oc3ncc(NC(=O)c4cn(C(C)C)nc(-c5ccc(F)cc5)c4=O)cn3)c2cc1OC` [Compound 40, N-(2-((6,7-dimethoxyquinolin-4-yl)oxy)pyrimidine-5-yl)-6-(4-fluorophenyl)-2-isopropyl-5-oxo-2,5-dihydropyridazine-4-carboxamide] showed a pIC50 (Mer (h)) of 7.92 and a pIC50 (Axl (h)) of 8.40.

`COc1cc2nccc(Oc3ccc(NC(=O)c4nn(C5CC5)cc(-c5ccc(F)cc5)c4=O)cn3)c2cc1OC` [Compound 36] was tested, and the pIC50 (Mer (h)) was over 9.00 and the pIC50 (Axl (h)) was 8.52.

`COc1cc2nccc(Oc3ncc(NC(=O)c4nn(C(C)C)cc(-c5ccc(F)cc5)c4=O)cn3)c2cc1OC` [Compound 34, N-(2-((6,7-dimethoxyquinolin-4-yl)oxy)pyrimidine-5-yl)-5-para-fluorophenyl-1-isopropyl-4-oxo-1,4-dihydropyridazine-3-carboxamide] gave a pIC50 (Mer (h)) of 8.70 and a pIC50 (Axl (h)) of 8.30.

Work on `COc1cc2nccc(Oc3cnc(NC(=O)c4cn(C(C)C)cc(-c5ccc(F)cc5)c4=O)nc3)c2cc1OC` [Compound 20, N-(5-((6,7-dimethoxyquinolin-4-y)oxy)pyrimidine-2-yl)-5-(4-fluorophenyl)-1-isopropyl-4-oxo-1,4-dihydropyridin-3-carboxamide] yielded a pIC50 (Mer (h)) of 8.52 and a pIC50 (Axl (h)) of 7.77.
